How the values were obtained:
5-HT6 receptors [1] = biological target: T1, 5-HT6 receptors (Homo sapiens, UniProt P50406); conditions: literature; cited from earlier work
hD4.2 receptor = biological target: T2, hD4.2 receptor (Homo sapiens, UniProt P21917, DEL265-296); test: Radioligand binding, dopamine D4 ([3H]YM-09151-2); conditions: read-out: Binding affinity (Inhibition rate % at 10 μM) D4
T2 construct: purchased BioSignal Packard Inc., Montreal, Canada
T2 sequence (P21917 with tags, fused parts or gaps DEL265-296): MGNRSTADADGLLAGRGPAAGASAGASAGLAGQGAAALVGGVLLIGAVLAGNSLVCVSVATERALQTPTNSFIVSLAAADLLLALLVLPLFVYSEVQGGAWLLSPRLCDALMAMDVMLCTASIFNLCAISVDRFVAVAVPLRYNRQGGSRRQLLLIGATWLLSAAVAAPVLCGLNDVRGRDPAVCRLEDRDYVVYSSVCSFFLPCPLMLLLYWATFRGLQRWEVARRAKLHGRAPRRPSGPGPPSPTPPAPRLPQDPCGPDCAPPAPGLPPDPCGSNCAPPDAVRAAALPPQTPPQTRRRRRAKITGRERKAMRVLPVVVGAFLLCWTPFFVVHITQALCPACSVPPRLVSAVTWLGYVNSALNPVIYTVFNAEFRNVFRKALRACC

[2] = biological target: T3, human serotonin 5-HT6 receptor (Homo sapiens, UniProt P50406); test: [3H]LSD binding at cloned 5-HT6 receptors; conditions: for IC50: [3H]LSD 1.87 nM, cloned receptor membranes, 37° C., 60 min, read-out: IC50; for inhibition at 10 µM: read-out: Binding affinity (Inhibition rate % at 10 μM) 5HT6; for 5-HT6 affinity compared with known selective antagonists: in words
T3 construct: made in house; host or cells: Sf21 insect cells (pBacPAK8 baculovirus vector)

5-HT1a = biological target: T4, 5-HT1a (Homo sapiens, UniProt P08908); test: Radioligand binding, 5-HT1a ([3H]8-OH-DPAT); conditions: read-out: Binding affinity (Inhibition rate % at 10 μM) 5HT1a
T4 construct: purchased Euroscreen/BioSignal Packard Inc
T4 sequence (P08908 1-422): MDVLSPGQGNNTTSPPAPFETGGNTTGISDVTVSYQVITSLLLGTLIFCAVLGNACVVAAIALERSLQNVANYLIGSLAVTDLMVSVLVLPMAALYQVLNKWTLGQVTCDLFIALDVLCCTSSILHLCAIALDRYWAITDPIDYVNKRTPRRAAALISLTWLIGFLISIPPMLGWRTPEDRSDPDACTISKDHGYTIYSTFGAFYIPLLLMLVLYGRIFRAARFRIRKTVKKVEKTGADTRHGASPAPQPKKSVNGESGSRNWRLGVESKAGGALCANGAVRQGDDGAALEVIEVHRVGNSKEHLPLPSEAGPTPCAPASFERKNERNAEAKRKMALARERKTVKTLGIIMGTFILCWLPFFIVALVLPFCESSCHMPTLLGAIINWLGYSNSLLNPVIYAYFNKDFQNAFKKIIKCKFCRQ
Method: (§1) Radioligand bindings were performed according to the test method provided by the supplier of receptor membrane (Euroscreen/BioSignal Packard Inc.).

hD2L receptor = biological target: T5, hD2L receptor (Homo sapiens, UniProt P14416); test: Radioligand binding, dopamine D2 ([3H]spiperone); conditions: read-out: Binding affinity (Inhibition rate % at 10 μM) D2
T5 construct: purchased BioSignal Packard Inc., Montreal, Canada

5-HT2c = biological target: T6, 5-HT2c (Homo sapiens, UniProt P28335); test: Radioligand binding, 5-HT2c ([3H]Mesulergine); conditions: read-out: Binding affinity (Inhibition rate % at 10 μM) 5HT2c
T6 construct: purchased Euroscreen/BioSignal Packard Inc
T6 sequence (P28335 33-458): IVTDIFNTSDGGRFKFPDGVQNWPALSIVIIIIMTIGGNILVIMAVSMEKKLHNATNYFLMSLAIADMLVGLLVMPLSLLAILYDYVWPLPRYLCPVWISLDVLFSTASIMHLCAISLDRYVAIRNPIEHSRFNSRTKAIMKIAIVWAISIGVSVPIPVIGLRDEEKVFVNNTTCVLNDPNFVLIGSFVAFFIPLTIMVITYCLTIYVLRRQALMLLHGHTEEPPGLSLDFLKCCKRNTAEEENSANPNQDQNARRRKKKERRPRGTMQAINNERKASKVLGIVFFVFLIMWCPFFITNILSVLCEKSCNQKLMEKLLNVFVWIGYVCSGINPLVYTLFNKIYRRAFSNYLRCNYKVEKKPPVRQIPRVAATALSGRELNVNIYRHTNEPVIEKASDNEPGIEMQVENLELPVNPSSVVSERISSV
Method: as §1

D1 = D1 (Homo sapiens, UniProt P21728); test: Radioligand binding for selectivity, D1; conditions: read-out: Binding affinity (Inhibition rate % at 10 μM) D1
5-HT2a = biological target: T7, 5-HT2a (Homo sapiens, UniProt P28223); test: Radioligand binding, 5-HT2a ([3H]Ketanserin); conditions: read-out: Binding affinity (Inhibition rate % at 10 μM) 5HT2a
T7 construct: purchased Euroscreen/BioSignal Packard Inc
Method: as §1

5-HT7 = biological target: T8, 5-HT7 (Homo sapiens, UniProt P34969); test: Radioligand binding, 5-HT7 ([3H]LSD); conditions: read-out: Binding affinity (Inhibition rate % at 10 μM) 5HT7
T8 construct: purchased Euroscreen/BioSignal Packard Inc
Method: as §1

hD3 receptor = biological target: T9, hD3 receptor (Homo sapiens, UniProt P35462); test: Radioligand binding, dopamine D3 ([3H]spiperone); conditions: read-out: Binding affinity (Inhibition rate % at 10 μM) D3
T9 construct: purchased BioSignal Packard Inc., Montreal, Canada

[3] = test system: rat maximal electroseizure threshold; conditions: rat maximal electroseizure threshold, oral administration, literature; cited from earlier work
rats = conditions: water maze, literature; cited from earlier work
[4] = in vivo; cited from earlier work
5-HT6 receptors [5] = biological target: T1, 5-HT6 receptors; conditions: antagonist, literature; cited from earlier work
[6] = test system: methamphetamine-induced hyperactivity and stereotypy; test: Methamphetamine-induced hyperactivity and stereotypy in rats; format: in vivo, rat; conditions: 50 mg/kg, i.p., methamphetamine 2 mg/kg
Method: On the day of testing, rats (200-250 g) were put into a transparent polycarbonate cages located in the activity chamber, and adapted for 30 minutes. For a methamphetamine-induced activity, vehicle or compounds according to the present invention was injected (i.p.) 30 minutes before the injection of methamphetamine (2 mg/kg, i.p.). After systemic injection of methamphetamine, total movement distance traveled or total stereotypy was measured over the 120-minutes period using an activity analyzer (TruScan, Coulbourn Instruments, USA).
The inhibitory effect of compounds (50 mg/kg, i.p.) of the present invention on methamphetamine (2 mg/kg, i.p.)-induced hyperactivity in rats is shown in FIGS. 2(a) and 2(b). The inhibitory effects of compounds (50 mg/kg, i.p.) of the present invention on methamphetamine (2 mg/kg, i.p.)-induced stereotypy is shown in FIGS. 3(a) and 3(b).

5-HT6 receptors [7] = biological target: T1, 5-HT6 receptors; test: 5-HT-stimulated cAMP accumulation in HeLa cell transfected with human 5-HT6 receptor; format: cell-based; set-up: host or cells: HeLa; conditions: for Antagonist activity compared with methiothepin: 5-HT-stimulated cAMP accumulation; for Functional classification at 5-HT6 receptor: inhibition of 5-HT-stimulated cAMP accumulation
Method: By a method (2000) disclosed by Rutledge et al. of MDS Pharma Service (Bothell, Wash., USA, MDSPS PT# 1037161), activity of adenylil cyclase in HeLa cell having transfected with human 5-HT6 receptor was measured. The assay mixture consisted of Hanks' balanced salt solution (HBSS, pH 7.4) containing: 1 mM MgCl2, 1 mM CaCl2, […] 1-methyl-3-isobutylxanthine. Incubation was started by addition of membrane suspension and compounds according to the present invention.

T5 sequence (P14416 whole entry): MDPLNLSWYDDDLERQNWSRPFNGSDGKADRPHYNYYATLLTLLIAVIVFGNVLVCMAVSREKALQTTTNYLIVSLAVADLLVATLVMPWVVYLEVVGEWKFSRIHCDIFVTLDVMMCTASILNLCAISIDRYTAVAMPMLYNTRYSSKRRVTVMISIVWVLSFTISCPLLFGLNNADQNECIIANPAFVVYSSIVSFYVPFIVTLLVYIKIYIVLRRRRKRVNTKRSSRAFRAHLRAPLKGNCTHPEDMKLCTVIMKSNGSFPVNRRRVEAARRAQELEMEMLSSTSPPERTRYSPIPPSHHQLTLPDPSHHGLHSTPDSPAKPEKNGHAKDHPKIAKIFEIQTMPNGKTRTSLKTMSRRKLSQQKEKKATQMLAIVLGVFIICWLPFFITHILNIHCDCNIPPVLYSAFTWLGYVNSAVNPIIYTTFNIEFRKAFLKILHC
T9 sequence (P35462 whole entry): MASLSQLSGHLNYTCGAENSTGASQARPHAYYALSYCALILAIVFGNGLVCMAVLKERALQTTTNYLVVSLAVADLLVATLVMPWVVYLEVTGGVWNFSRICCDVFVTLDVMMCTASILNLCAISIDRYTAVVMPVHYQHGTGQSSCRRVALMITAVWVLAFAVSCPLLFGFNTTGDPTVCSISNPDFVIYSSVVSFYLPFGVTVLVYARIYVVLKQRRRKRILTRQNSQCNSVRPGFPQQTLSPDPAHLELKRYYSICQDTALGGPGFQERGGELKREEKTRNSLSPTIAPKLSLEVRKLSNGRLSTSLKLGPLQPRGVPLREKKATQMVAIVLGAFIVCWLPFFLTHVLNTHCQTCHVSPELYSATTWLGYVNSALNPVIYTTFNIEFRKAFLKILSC
T3 sequence (P50406 whole entry): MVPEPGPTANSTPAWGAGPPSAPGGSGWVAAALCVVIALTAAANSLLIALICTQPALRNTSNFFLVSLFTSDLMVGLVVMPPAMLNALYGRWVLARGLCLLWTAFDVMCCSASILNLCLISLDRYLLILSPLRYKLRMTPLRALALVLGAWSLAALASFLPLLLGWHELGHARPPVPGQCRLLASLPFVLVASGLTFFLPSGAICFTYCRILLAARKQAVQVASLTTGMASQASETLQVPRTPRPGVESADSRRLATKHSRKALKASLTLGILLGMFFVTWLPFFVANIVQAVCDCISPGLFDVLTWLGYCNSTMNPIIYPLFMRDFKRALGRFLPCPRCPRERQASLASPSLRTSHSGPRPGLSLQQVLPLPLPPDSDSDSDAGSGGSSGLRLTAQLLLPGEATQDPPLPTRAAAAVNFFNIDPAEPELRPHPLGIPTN
T1 sequence (P50406 whole entry): as above
Chain of D1 (P21728 whole entry): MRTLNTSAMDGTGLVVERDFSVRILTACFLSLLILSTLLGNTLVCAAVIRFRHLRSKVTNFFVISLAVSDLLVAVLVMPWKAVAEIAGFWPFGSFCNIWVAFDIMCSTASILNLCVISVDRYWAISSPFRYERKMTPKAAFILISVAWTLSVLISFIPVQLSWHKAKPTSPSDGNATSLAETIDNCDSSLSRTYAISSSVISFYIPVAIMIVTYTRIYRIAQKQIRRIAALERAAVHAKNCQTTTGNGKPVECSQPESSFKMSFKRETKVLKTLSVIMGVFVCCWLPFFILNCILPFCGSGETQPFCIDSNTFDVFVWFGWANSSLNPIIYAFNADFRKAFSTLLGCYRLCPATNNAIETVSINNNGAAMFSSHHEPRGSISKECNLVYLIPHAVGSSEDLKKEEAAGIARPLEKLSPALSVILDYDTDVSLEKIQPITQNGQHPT
T8 sequence (P34969 whole entry): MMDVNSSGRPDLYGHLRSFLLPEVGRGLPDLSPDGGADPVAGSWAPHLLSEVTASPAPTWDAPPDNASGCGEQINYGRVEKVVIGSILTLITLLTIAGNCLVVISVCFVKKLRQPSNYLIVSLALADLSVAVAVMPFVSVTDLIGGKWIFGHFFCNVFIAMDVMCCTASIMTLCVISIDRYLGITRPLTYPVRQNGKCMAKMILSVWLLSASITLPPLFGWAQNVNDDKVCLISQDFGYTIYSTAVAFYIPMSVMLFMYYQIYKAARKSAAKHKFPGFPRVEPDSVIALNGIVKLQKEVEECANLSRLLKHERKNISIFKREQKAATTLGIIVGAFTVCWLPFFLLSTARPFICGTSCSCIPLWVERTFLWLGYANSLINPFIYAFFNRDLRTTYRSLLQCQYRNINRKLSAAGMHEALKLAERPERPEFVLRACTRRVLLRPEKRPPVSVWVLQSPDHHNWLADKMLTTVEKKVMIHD
T7 sequence (P28223 whole entry): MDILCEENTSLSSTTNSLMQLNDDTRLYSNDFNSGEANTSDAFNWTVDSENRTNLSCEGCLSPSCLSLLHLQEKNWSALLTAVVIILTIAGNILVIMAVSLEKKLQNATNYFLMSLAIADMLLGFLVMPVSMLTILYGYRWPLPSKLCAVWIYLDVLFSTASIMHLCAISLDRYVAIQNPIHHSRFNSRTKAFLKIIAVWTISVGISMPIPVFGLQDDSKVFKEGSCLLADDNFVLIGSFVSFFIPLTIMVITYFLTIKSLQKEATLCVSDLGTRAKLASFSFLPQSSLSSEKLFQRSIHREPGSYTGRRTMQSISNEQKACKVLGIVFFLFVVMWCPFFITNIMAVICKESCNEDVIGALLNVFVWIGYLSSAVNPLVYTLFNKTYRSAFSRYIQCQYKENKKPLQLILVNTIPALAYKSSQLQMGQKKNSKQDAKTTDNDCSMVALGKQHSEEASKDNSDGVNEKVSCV

SMILES	Ki (5-HT6 receptors [1]) [µM]	inhibition at 10 µM (hD4.2 receptor) [%]	IC50 [2] [µM]	inhibition at 10 µM [2] [%]	inhibition at 10 µM (5-HT1a) [%]	inhibition at 10 µM (hD2L receptor) [%]	inhibition at 10 µM (5-HT2c) [%]	inhibition at 10 µM (D1) [%]	inhibition at 10 µM (5-HT2a) [%]	inhibition at 10 µM (5-HT7) [%]	inhibition at 10 µM (hD3 receptor) [%]	seizure threshold [3]	retention of a previously learned task (rats)	clearance (in words) [4]	pA2 (5-HT6 receptors [5])	Antipsychotic effect [6]	5-HT6 affinity compared with known selective antagonists [2]	melting point [°C]	Antagonist activity compared with methiothepin (5-HT6 receptors [7])	Functional classification at 5-HT6 receptor (5-HT6 receptors [7])
COc1cc2c(c(OC)c1)C(=O)C(C)(c1ccccc1)C(=O)N2 (stereo not drawn) [Example 8, 5,7-dimethoxy-3-methyl-3-phenyl-1H-quinoline-2,4-dione]	0.0014	0.8	0.118	74	30.2	16	23.9	16.9	13.6	23.3	4.6									
COc1ccc(S(=O)(=O)Nc2cc(Br)cc(F)c2Br)cc1N1CCNCC1 [SB-357134]												potent and dose-dependent increase in seizure threshold	significant improvement in retention of a previously learned task	low clearance rate						
COc1ccc2c(c1)c(CCN(C)C)cn2S(=O)(=O)c1ccccc1 [MS-245]															8.88					
CC1(c2ccc(O)cc2)C(=O)Nc2cc(Cl)cc(Cl)c2C1=O (stereo not drawn) [Example 13, 5,7-dichloro-3-(4-hydroxy-phenyl)-3-methyl-1H-quinoline-2,4-dione]		0	0.02	89.5	33.9	35.2	39.4	51	48.6	36.7	27.8					mild antipsychotic effect	almost same affinities as or better affinities than known selective antagonists	222 to 223	weaker antagonist activity than methiothepin	5-HT6 receptor antagonist
CC1(c2ccccc2)C(=O)Nc2cc(Cl)cc(Cl)c2C1=O (stereo not drawn) [Example 1, 5,7-dichloro-3-methyl-3-phenyl-1H-quinoline-2,4-dione]		0	0.089	91.1	16.4	1.6	18.3	11.4	6.4	43.2	12.6					mild antipsychotic effect	almost same affinities as or better affinities than known selective antagonists	222 to 225	weaker antagonist activity than methiothepin	5-HT6 receptor antagonist
CN1CCN(c2ccc3c(c2)NC(=O)C(C)(c2ccc(N)cc2)C3=O)CC1 (stereo not drawn) [Example 50, 3-(4-amino-phenyl)-3-methyl-7-(4-methyl-piperazine-1-yl)-1H-quinoline-2,4-dione]		0	0.942	74.5	6.7	8.2	15.4	34.1	21.5	20.5	50.1							265 to 267		
CC1(c2ccc([N+](=O)[O-])cc2)C(=O)Nc2cc(Cl)ccc2C1=O (stereo not drawn) [Example 37, 7-chloro-3-methyl-3-(4-nitro-phenyl)-1H-quinoline-2,4-dione]		0	1	73.3	10.4	8.3	1.4	49.2	49.2	21	10.5							209 to 210		
CN1CCN(c2ccc3c(c2)NC(=O)C(C)(c2ccc([N+](=O)[O-])cc2)C3=O)CC1 (stereo not drawn) [Example 51, 3-methyl-7-(4-methyl-piperazine-1-yl)-3-(4-nitro-phenyl)-1H-quinoline-2,4-dione]		0	0.904	73.5	44.2	7.4	20.3	40.9	26.4	17.5	13.5							150 to 151		
